This note sets out measurements from patent publication US20230287051A1, “INHIBITORS OF COMPLEMENT FACTOR C3 AND THEIR MEDICAL USES” (ZP SPV 3 K/S, priority 2020, published 2023).

Numbered stars: 1 amine (or outer) side, 2 acyl side, 3 side chain; on linkers, the order of the positions; unused ones are H or OH. Bridge positions count the residues as written; N and C are the ends. Square brackets hold non-standard residues; d marks the D form. Side chains are listed from the residue outwards. Peptide text beside a SMILES is read from it. * marks the point of attachment. Trp(1-Me) = Cn1cc(C[C@H](N)C(=O)O)c2ccccc21; C18 diacid = O=C(O)CCCCCCCCCCCCCCCCC(=O)*; γGlu = O=C(O)[C@H](CCC(=O)[*:2])N[*:1]; AEEA = NCCOCCOCC(=O)O; CH2 = C([*:1])[*:2]; Sar = CNCC(=O)O Some results are limits rather than exact numbers.

Sequences and labels used below:
B1: Compound 1 (peptide)
peptide: SEFCIWQDWGEHRCTGAES
modifications: N-terminal acetyl; 1-Me-Trp at 6; Cys4 and Cys14 bridged by methylene thioacetal (-S-CH2-S-); C-terminal amide
notes: Synthetic compstatin analogue; also called Comp No 1
B2: Compound 7 (peptide)
peptide: Ac-SEFCI[Trp(1-Me)]QDW[Sar]EHRC[Sar]E[AEEA][AEEA]K([γGlu-Gly-γGlu-C18 diacid])-NH2
modifications: bridge 4-14 via methylene thioacetal (-S-CH2-S-)
notes: Synthetic compstatin analogue; also called Comp No 7
B3: Compound 12 (peptide)
peptide: Ac-EFCI[Trp(1-Me)]QDW[Sar]EHRCTEA[AEEA][AEEA]K([γGlu-Gly-γGlu-C18 diacid])-NH2
modifications: bridge 3-13 via methylene thioacetal (-S-CH2-S-)
notes: Synthetic compstatin analogue; also called Comp No 12
B4: Compound 9 (peptide)
peptide: Ac-SEFCI[Trp(1-Me)]QDW[Sar]EHRCTEGE[AEEA][AEEA]K([γGlu-Gly-γGlu-C18 diacid])-NH2
modifications: bridge 4-14 via methylene thioacetal ‑S‑CH2‑S‑ (CH2I2, DIPEA)
notes: Synthetic compstatin analogue; also called Comp No 9
B5: Compound 20 (peptide)
peptide: Ac-EGSEFCI[Trp(1-Me)]QDW[Sar]EHRCTEGE[AEEA]ESK([γGlu-C18 diacid])-NH2
modifications: bridge 6-16 via methylene thioacetal (-S-CH2-S-)
notes: Synthetic compstatin analogue; also called Comp No 20
B6: Compound 19 (peptide)
peptide: EGSEFCIWQDWGEHRCTEGE
modifications: N-terminal [15-Carboxy-pentadecanoyl]; 1-Me-Trp at 8; Cys6 and Cys16 bridged by methylene thioacetal (-S-CH2-S-); Sar at 12; C-terminal amide
notes: Synthetic compstatin analogue; also called Comp No 19
B7: Compound 27 (peptide)
peptide: Ac-EGESGFCI[Trp(1-Me)]QDW[Sar]EHRCTEGE[AEEA][AEEA]K([γGlu-Gly-γGlu-C18 diacid])-NH2
modifications: bridge 7-17 via methylene thioacetal (-S-CH2-S-)
notes: Synthetic compstatin analogue; also called Comp No 27
B8: Compound 28 (peptide)
peptide: Ac-GQSAFCI[Trp(1-Me)]QDW[Sar]EHRCTEGE[AEEA][AEEA]K([γGlu-Gly-γGlu-C18 diacid])-NH2
modifications: bridge 6-16 via methylene thioacetal (-S-CH2-S-)
notes: Synthetic compstatin analogue; also called Comp No 28
B9: Compound 29 (peptide)
peptide: H-ESGVFCI[Trp(1-Me)]QDW[Sar]EHRCTEGE[AEEA][AEEA]K([γGlu-Gly-γGlu-C18 diacid])-NH2
modifications: bridge 6-16 via methylene thioacetal (-S-CH2-S-)
notes: Synthetic compstatin analogue; also called Comp No 29
B10: Compound 10 (peptide)
peptide: Ac-SEFCI[Trp(1-Me)]QDW[Sar]EHRCTE[AEEA][AEEA]K([γGlu-Gly-γGlu-C18 diacid])-NH2
modifications: bridge 4-14 via methylene thioacetal (-S-CH2-S-)
notes: Synthetic compstatin analogue; also called Comp No 10

The first assay deals with T1, Human C3 (Complement tech cat #A113c) (human, UniProt P01024 23-1663).
T1 construct: Purified human C3 immobilised by amine coupling in the SPR assay; in the haemolysis assay the C3 is that of diluted human serum; Native C3 is a two-chain (beta and alpha) protein made from one precursor; also called complement factor C3
T1 sequence (P01024 23-1663 limits assumed): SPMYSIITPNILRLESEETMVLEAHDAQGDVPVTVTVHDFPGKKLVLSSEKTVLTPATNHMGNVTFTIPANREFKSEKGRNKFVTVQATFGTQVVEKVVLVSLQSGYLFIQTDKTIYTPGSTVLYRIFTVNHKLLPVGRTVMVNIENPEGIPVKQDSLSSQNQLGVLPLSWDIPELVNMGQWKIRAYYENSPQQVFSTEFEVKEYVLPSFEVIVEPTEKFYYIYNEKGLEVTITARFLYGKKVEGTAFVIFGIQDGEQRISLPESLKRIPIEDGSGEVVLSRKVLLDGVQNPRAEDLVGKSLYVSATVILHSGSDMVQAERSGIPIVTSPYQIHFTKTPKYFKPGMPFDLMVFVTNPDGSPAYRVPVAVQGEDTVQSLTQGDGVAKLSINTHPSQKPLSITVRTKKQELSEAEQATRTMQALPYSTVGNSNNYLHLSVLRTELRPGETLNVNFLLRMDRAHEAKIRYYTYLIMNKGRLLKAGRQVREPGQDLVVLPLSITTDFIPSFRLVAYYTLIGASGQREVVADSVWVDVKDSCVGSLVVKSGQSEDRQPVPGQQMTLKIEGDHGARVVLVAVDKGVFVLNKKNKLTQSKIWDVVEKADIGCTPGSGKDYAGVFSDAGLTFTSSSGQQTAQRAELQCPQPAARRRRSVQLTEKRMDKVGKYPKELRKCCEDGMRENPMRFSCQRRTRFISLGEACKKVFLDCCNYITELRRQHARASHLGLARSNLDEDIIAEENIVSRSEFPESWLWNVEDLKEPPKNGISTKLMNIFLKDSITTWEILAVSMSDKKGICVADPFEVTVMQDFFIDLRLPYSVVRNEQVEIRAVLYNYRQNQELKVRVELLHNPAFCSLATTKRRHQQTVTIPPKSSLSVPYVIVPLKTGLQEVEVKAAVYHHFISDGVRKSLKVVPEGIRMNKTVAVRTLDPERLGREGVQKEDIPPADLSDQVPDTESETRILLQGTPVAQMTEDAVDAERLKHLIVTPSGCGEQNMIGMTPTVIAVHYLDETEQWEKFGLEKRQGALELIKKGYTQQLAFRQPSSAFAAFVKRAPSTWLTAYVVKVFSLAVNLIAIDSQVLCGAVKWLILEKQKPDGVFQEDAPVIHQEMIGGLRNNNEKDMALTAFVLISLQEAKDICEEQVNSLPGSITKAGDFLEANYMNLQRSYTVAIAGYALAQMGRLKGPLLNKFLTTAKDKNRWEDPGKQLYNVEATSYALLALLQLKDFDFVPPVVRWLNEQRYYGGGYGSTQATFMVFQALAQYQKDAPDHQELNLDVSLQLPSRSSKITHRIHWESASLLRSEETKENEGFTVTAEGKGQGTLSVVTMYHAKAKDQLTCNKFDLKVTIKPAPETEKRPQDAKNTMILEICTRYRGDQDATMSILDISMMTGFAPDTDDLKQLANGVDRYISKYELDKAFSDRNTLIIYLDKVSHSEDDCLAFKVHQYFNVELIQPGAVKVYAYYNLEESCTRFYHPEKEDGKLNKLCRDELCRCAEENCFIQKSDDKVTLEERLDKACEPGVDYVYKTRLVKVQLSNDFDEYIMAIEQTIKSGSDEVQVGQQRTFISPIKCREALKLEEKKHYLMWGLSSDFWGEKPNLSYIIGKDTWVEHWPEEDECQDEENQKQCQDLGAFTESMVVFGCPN
In words: SPR (Biacore X100, 25 C), human C3 amine-coupled on CM5 chip, peptide as analyte, 1:1 Langmuir fit.
Conditions: not given
On the procedure:
Surface plasmon resonance (SPR) was used to characterize peptides with respect to their binding affinity (Kd) for C3.
For interaction experiments, a multi-cycle experiment approach was used and performed using a BiacoreX100™ instrument (GE Healthcare) at 25° C. Peptides were injected in increasing concentration series (5 different concentrations and buffer reference) for 180 seconds at a flow rate of 30 μL/min in a buffer consisting of 50 mM Tris buffer at pH 7.4, with 150 mM NaCl and 0.05% Tween20. This was followed by a dissociation period for 10 min.
Sensorgrams were double-referenced (reference surface, blanks) prior to analysis of the kinetic profiles by globally fitting data to a 1:1 Langmuir binding model to obtain association and dissociation rates for calculation of the equilibrium dissociation constant Kd (Table 3). Each peptide was tested at in at least 2 independent experiments.
On the technique in general: In SPR one partner is held on a chip, and binding of the other changes the refractive index at the surface.
A word on the Kd: it is the constant that tells how readily two partners part at equilibrium. As to B1, binding was put at a Kd of 25 nM.

The molecule B2 gave a Kd of 21 nM.

The molecule B3 had a Kd of 12 nM.

A further assay addresses T1, Human C3 (Complement tech cat #A113c). Description: cell-based or functional assay.
Conditions: not given
For the molecule B4, the “IC50 [nM], in vitro inhibition of hemolysis (classical complement pathway; human serum, sensitized sheep RBC)” value (“IC50 [nM], in vitro inhibition” below) is less than 250 nM.

B5: the “IC50 [nM], in vitro inhibition” value was less than 250 nM.

For B6, the “IC50 [nM], in vitro inhibition” value is less than 250 nM.

As for B7, the “IC50 [nM], in vitro inhibition” value was less than 100 nM.

In the case of B1, the “IC50 [nM], in vitro inhibition” value is less than 100 nM.

As to B8, the “IC50 [nM], in vitro inhibition” value is less than 100 nM.

Turning to B9, the “IC50 [nM], in vitro inhibition” value was less than 100 nM.

With B2, the “IC50 [nM], in vitro inhibition” value is less than 500 nM.

Regarding B10, the “IC50 [nM], in vitro inhibition” value was less than 250 nM.

Regarding B3, the “IC50 [nM], in vitro inhibition” value was less than 100 nM.

Another assay deals with classical complement pathway. In words: In vitro haemolysis assay (inhibition of classical complement pathway). The conditions noted are these: human serum, sensitized sheep RBC, 30 minutes at 37° C., absorbance at 405 nm, n=>2; read-out: IC50, inhibition of hemolysis. It is filed as cell-based. On the procedure: The in vitro effect of some of the compounds described herein was assessed by measuring their inhibitory effect of the classical complement pathway in a haemolysis assay.
Briefly, compounds described herein and reference compounds were dissolved in DMSO and diluted in Tris/Casein Assay Buffer (10 mM Tris, 145 mM NaCl, 0.5 mM MgCl2, 0.15 mM CaCl2, and 0.1% W/V casein, adjusted to pH 7.4) as 9-point serial dilutions in a 96-well plate. Sensitized sheep red blood cells (RBC) coated with rabbit anti-sheep erythrocyte antiserum (Complement Technology, Inc., TX, USA) were washed in Tris/asein Assay Buffer. 50 μL from each well of diluted compound was added to a 96-well plate containing 50 μL diluted human serum (Complement Technology, Inc., TX, USA) and incubated for 15 minutes at room temperature. The serum dilution factor was optimized for every serum batch to obtain 70-90% of maximal haemolysis using the protocol. Then 50 μL sensitized sheep RBCs were added to all wells ([…]).
After 30 minutes of incubation at 37° C. with gentle agitation, the reaction was stopped by addition of 50 μL Tris STOP Buffer per well (10 mM EDTA, 10 mM Tris, 145 mM NaCl adjusted to pH 7.4). The RBCs were then removed by centrifugation and the resulting supernatant measured for hemolysis by absorbance at 405 nm.
The response was normalized relative to a positive and negative control (vehicle) to calculate the IC50 (nM) from the concentration response curve using the 4-parameter logistic (4PL) nonlinear model for curve fitting (Table 2). All values are based on n=>2 independent determinations.
The term IC50 denotes the concentration that gives 50% inhibition. Turning to `CC[C@H](C)[C@@H]1NC(=O)[C@@H](NC(=O)[C@H](Cc2ccccc2)NC(=O)[C@H](CCC(=O)O)NC(=O)[C@H](CCC(N)=O)NC(=O)[C@H](CCCCN)NC(=O)[C@H](CO)NC(C)=O)CSCSC[C@@H](C(=O)N[C@H](C(=O)N[C@@H](CCC(=O)O)C(=O)NCC(=O)N[C@@H](CCC(=O)O)C(=O)NCCOCCOCC(=O)NCCOCCOCC(=O)N[C@@H](CCCCNC(=O)CC[C@H](NC(=O)CNC(=O)CC[C@H](NC(=O)CCCCCCCCCCCCCCCCC(=O)O)C(=O)O)C(=O)O)C(N)=O)[C@@H](C)O)NC(=O)[C@H](CCCNC(=N)N)NC(=O)[C@H](Cc2c[nH]cn2)NC(=O)[C@H](CCC(=O)O)NC(=O)CN(C)C(=O)[C@H](Cc2c[nH]c3ccccc23)NC(=O)[C@H](CC(=O)O)NC(=O)[C@H](CCC(N)=O)NC(=O)[C@H](Cc2cn(C)c3ccccc23)NC1=O` [Compound 26, Ac-SKQEF[C(1)]I[1-Me-Trp]QDW[Sar]EHR[C(1)]TEGE[Peg3][Peg3]-K([17-Carboxy-heptadecanoyl][yGlu]G[yGlu])-NH2] (Ac-SKQEFCI[Trp(1-Me)]QDW[Sar]EHRCTEGE[AEEA][AEEA]K([γGlu-Gly-γGlu-C18 diacid])-NH2; linker 6-16 via CH2), the IC50 was less than 100 nM.

Consider `CC[C@H](C)[C@H](NC(=O)[C@H](N)Cc1ccc(O)cc1)C(=O)N[C@H]1CSSC[C@@H](C(=O)N(C)[C@H](C(N)=O)[C@@H](C)CC)NC(=O)[C@H](CCCNC(=N)N)NC(=O)[C@H](Cc2c[nH]cn2)NC(=O)[C@H](C)NC(=O)CN(C)C(=O)[C@H](Cc2c[nH]c3ccccc23)NC(=O)[C@H](CC(=O)O)NC(=O)[C@H](CCC(N)=O)NC(=O)[C@H](Cc2cn(C)c3ccccc23)NC(=O)[C@H](C(C)C)NC1=O` [Cp40, H-{d}YIC(*)V[1-Me-Trp]QDW[SarJAHRC(*)[N-Me-Ile]-NH2, reference compound], for which the IC50 was less than 100 nM.

“Ac-EGSAY[C(1)]I[1-Me-Trp]QDWGEHR[C(1)][Sar]EK[yGlu]-K([17-Carboxy-heptadecanoyl][yGlu][Peg3][Peg3])-NH2 [Compound 3]”: the IC50 was less than 500 nM.

For “Ac-EQEVF[C(1)]I[1-Me-Trp]QDW[Sar]EHR[C(1)]TEGE[Peg3][Peg3]-K([17-Carboxy-heptadecanoyl][yGlu]G[yGlu])-NH2 [Compound 22]”, the IC50 is less than 100 nM.

Take “Ac-GEF[C(1)]I[1-Me-Trp]QDWGEHR[C(1)][Sar]EAE[Peg3][Peg3]-K([17-Carboxy-heptadecanoyl][yGlu]G[yGlu])-NH2 [Compound 6]”: the IC50 was less than 500 nM.

On to “Ac-KSGEF[C(1)]I[1-Me-Trp]QDW[Sar]EHR[C(1)]TEGE[Peg3][Peg3]-K([17-Carboxy-heptadecanoyl][yGlu]G[yGlu])-NH2 [Compound 21]”, for which the IC50 is less than 100 nM.

As for “Ac-SEFC(2)I[1-Me-Trp]QDWGEHRC(2)TGAES-NH2 [Compound 31]”, the IC50 was less than 250 nM.

With “Ac-SEF[C(1)]IWQDW[Sar]EHR[C(1)]TEGE[Peg3]ES-K([17-Carboxy-heptadecanoyl][yGlu])-NH2 [Compound 16]”, the IC50 was less than 1000 nM.

For “Ac-SEF[C(1)]IYQDW[Sar]EHR[C(1)]TEGE[Peg3]ES-K([17-Carboxy-heptadecanoy!][yGlu])-NH2 [Compound 17]”, the IC50 is less than 500 nM.

For “Ac-SEF[C(1)]I[1-Me-Trp]QDWGEHR[C(1)]TEGE[Peg3]ES-K([17-Carboxy-heptadecanoyl]-[yGlu]-NH2 [Compound 5]”, the IC50 is less than 500 nM.

For “Ac-SEF[C(1)]I[1-Me-Trp]QDWGEHR[C(1)]TGAES[Peg3][Peg3]-K([17-Carboxy-heptadecanoyl][yGlu]G[yGlu])-NH2 [Compound 14]”, the IC50 was less than 250 nM.

Regarding “Ac-SEF[C(1)]I[1-Me-Trp]QDWGEHR[C(1)][Sar]EGA-K([17-Carboxy-heptadecanoyl]-[yGlu]G[Peg3][yGlu][Peg3]-NH2 [Compound 4]”, the concentration for half-maximal inhibition (IC50) was less than 500 nM.

Regarding “Ac-SEF[C(1)]I[1-Me-Trp]QDW[SarJAHR[C(1)]TEGE[Peg3]ES-K([17-Carboxy-heptadecanoyl][yGlu])-NH2 [Compound 13]”, the IC50 was less than 250 nM.

With “Ac-SEF[C(1)]I[1-Me-Trp]QDW[Sar]EHR[C(1)][Sar]E[Peg3][Peg3]-K([17-Carboxy-heptadecanoyl]-[yGlu]G[yGlu]-NH2 [Compound 8]”, the IC50 is less than 500 nM.

For the molecule “Ac-SEF[C(1)]I[[1-Me-Trp]QDW[Sar]EHR[C(1)]TEGE[Peg3]ES-K([17-Carboxy-heptadecanoyl][yGlu])-NH2 [Compound 11]”, the IC50 was less than 250 nM.

“Ac-SEY[C(1)]I[1-Me-Trp]QDW[Sar]EHR[C(1)]TEGE[Peg3]ES-K([17-Carboxy-heptadecanoyl][yGlu])-NH2 [Compound 18]”: the IC50 is less than 250 nM.

For “Ac-YEQAF[C(1)]I[1-Me-Trp]QDW[Sar]EHR[C(1)]TEGE[Peg3]ES-K([17-Carboxy-heptadecanoyl][yGlu]G[yGlu])-NH2 [Compound 30]”, the IC50 was less than 100 nM.
